Results: ChEMBL document CHEMBL4513161, “CO-ADD screening of MMV (CH) - Pandemic Response Box” (2021)
≈ marks a conversion by molar mass, not a printed value.

Key:
[1] = system: Cryptococcus neoformans
Description: Antifungal activity against Cryptococcus neoformans H99 ATCC 208821 (CO-ADD:FG_002); MIC in YNB media using NBS plates, by Resazurin OD(600-570)

[2] = system: Pseudomonas aeruginosa; assay: microbe, parasite or virus in culture; details: ATCC 27853, 18 h, ASSAY_TEST Inhibition of Bacterial Growth, detection method Absorption (OD600), MEDIA CAMHB, plate type 384well, NBS, CORNING #3640
Description: Antibacterial activity against Pseudomonas aeruginosa ATCC 27853 (CO-ADD:GN_042); MIC in CAMBH media using NBS plates, by OD(600)

[3] = system: Klebsiella pneumoniae; assay: microbe, parasite or virus in culture; details: ATCC 700603, 18 h, ASSAY_TEST Inhibition of Bacterial Growth, detection method Absorption (OD600), MEDIA CAMHB, plate type 384well, NBS, CORNING #3640
Description: Antibacterial activity against Klebsiella pneumoniae MDR ATCC 70063 (CO-ADD:GN_003); MIC in CAMBH media using NBS plates, by OD(600)

[4] = system: Escherichia coli; assay: microbe, parasite or virus in culture; details: ATCC 25922, 18 h, ASSAY_TEST Inhibition of Bacterial Growth, detection method Absorption (OD600), MEDIA CAMHB, plate type 384well, NBS, CORNING #3640
Description: Antibacterial activity against Escherichia coli ATCC 25922 (CO-ADD:GN_001); MIC in CAMBH media using NBS plates, by OD(600)

[5] = system: Acinetobacter baumannii; assay: microbe, parasite or virus in culture; details: ATCC 19606, 18 h, ASSAY_TEST Inhibition of Bacterial Growth, detection method Absorption (OD600), MEDIA CAMHB, plate type 384well, NBS, CORNING #3640
Description: Antibacterial activity against Acinetobacter baumannii ATCC 19606 (CO-ADD:GN_034); MIC in CAMBH media using NBS plates, by OD600

[6] = system: HEK293; assay: cells; format: functional, Homo sapiens, ATCC CRL1573; details: Homo sapiens, ATCC CRL1573, HEK293; ASSAY_TEST Inhibition of Cell Viability; detection method Resazurin; Fluorescence (ex560/em590); MEDIA DMEM with 10% FBS; plate type 384well; TC; CORNING #3712; time 18 hr; read-out: CC50
[7] = system: Candida albicans; assay: microbe, parasite or virus in culture; details: ATCC 90028, ASSAY_TEST Inhibition of Fungal Growth, detection method Absorption (OD530), plate type 384well, NBS, CORNING #3640
Description: Antifungal activity against Candida albicans ATCC 90028 (CO-ADD:FG_001); MIC in YNB media using NBS plates, by OD630

[8] = system: Staphylococcus aureus; assay: microbe, parasite or virus in culture; details: ATCC 43300, 18 h, ASSAY_TEST Inhibition of Bacterial Growth, detection method Absorption (OD600), MEDIA CAMHB, plate type 384well, NBS, CORNING #3640
Description: Antibacterial activity against Staphylococcus aureus MRSA ATCC 43300 (CO-ADD:GP_020); MIC in CAMBH media, using NBS plates, by OD(600)

[9] = system: Pseudomonas aeruginosa; assay: Antibacterial activity against Pseudomonas aeruginosa PAO397 [PAO1 d(mexAB-oprM) d(mexCD-oprJ) d(mexEF-oprN) d(mexJKL) d(mexXY) d(opmH)] (CO-ADD:GN_211); MIC in CAMBH media using NBS plates, by OD(600); format: functional; details: ASSAY_TEST Inhibition of Bacterial Growth, detection method Absorption (OD600), MEDIA CAMHB, plate type 384well, CORNING #3640, time 18 hr

| Compound | MIC [1] [µM] | MIC [2] [µM] | MIC [3] [µM] | MIC [4] [µM] | MIC [5] [µM] | CC50 [6] [µM] | MIC [7] [µM] | MIC [8] [µM] | MIC [9] [µM] |
| --- | --- | --- | --- | --- | --- | --- | --- | --- | --- |
| CC(=O)O[C@H]1C[C@@]2(C)[C@@H](C[C@@H](O)[C@H]3[C@@]4(C)CC[C@@H](O)[C@@H](C)[C@@H]4CC[C@@]32C)/C1=C(\CCC=C(C)C)C(=O)O [FUSIDIC ACID] | > 20 | > 20 | > 20 | > 20 | > 20 | > 20 | > 20 | 0.312 (≈ 0.161 µg/mL) | > 20 |
| Clc1ccc(Cn2c(CN3CCCC3)nc3ccccc32)cc1 [CLEMIZOLE] | > 20 | > 20 | > 20 | > 20 | > 20 | > 20 | > 20 | > 20 | > 20 |
| Cc1ccc(C)c(OCCCCCCN2C[C@H](O)[C@@H](O)[C@H](O)[C@H]2CO)c1 | > 20 | > 20 | > 20 | > 20 | > 20 | > 20 | > 20 | > 20 | > 20 |
| Cc1ncc([N+](=O)[O-])n1CC(C)O (stereo unspecified) [SECNIDAZOLE] | > 20 | > 20 | > 20 | > 20 | > 20 | > 20 | > 20 | > 20 | > 20 |
| O=C(N[C@H](CCS)C(=O)N[C@H](Cc1ccccc1)C(=O)O)c1cc2ccccc2[nH]1 | > 20 | > 20 | > 20 | > 20 | > 20 | > 20 | > 20 | > 20 | > 20 |
| O=C(Nc1ccccc1C(=O)O)c1cccc(Oc2ccccc2)c1 | > 20 | > 20 | > 20 | > 20 | > 20 | > 20 | > 20 | > 20 | > 20 |
| COc1ccc(CNC(=O)C2CCN([C@H](C)c3cccc4ccccc34)CC2)cc1 | > 20 | > 20 | > 20 | > 20 | > 20 | > 20 | > 20 | > 20 | > 20 |
| Cc1nc2ccc(Oc3ccccc3)cc2c2c1CCN2CCc1ccccc1 | > 20 | > 20 | > 20 | > 20 | > 20 | 14.4 | > 20 | > 20 | 20 (≈ 7.61 µg/mL) |
| C[C@H]1CC[C@]2(NC1)O[C@H]1C[C@H]3[C@@H]4CC[C@H]5C[C@@H](O)CC[C@]5(C)[C@H]4CC[C@]3(C)[C@H]1[C@@H]2C | > 20 | > 20 | > 20 | > 20 | > 20 | > 20 | 20 (≈ 8.31 µg/mL) | > 20 | > 20 |
| Cc1ccccc1NC(=O)Nc1cccc([N+](=O)[O-])c1 | > 20 | > 20 | > 20 | > 20 | > 20 | > 20 | > 20 | > 20 | > 20 |
| Nc1nc(NC2Cc3ccc(F)cc3C2)nc(N2CCCCC2)n1 (stereo unspecified) | > 20 | > 20 | > 20 | > 20 | > 20 | > 20 | > 20 | > 20 | > 20 |
| CCCCCCCCCN1C[C@@H](O)[C@H](O)[C@@H](O)[C@@H]1CO | > 20 | > 20 | > 20 | > 20 | > 20 | > 20 | > 20 | > 20 | > 20 |
| Cn1cc(NC(=O)c2cc(NC(=O)c3ccc(/C=C/c4cnc5ccccc5c4)cc3)cn2C)cc1C(=O)NCCN1CCOCC1 [MGB-BP-3] | > 20 | > 20 | > 20 | > 20 | > 20 | 1.71 | > 20 | 1.25 (≈ 0.79 µg/mL) | > 20 |
| CCc1cc(CCCOc2c(C)cc(-c3noc(C(F)(F)F)n3)cc2C)on1 | > 20 | > 20 | > 20 | > 20 | > 20 | > 20 | > 20 | > 20 | > 20 |
